From US20100221502A1, “Anthrapyridone Compound and Salt Thereof, Magenta Ink Composition Containing the Anthrapyridone Compound, and Colored Article” (priority 2005, published 2010)

Key:
Type in all cases: physicochemical
[1] = Evaluation of hue on glossy paper (L*, a*, b*, C* of inkjet recorded image); set-up: key to Lightness L*: CIELAB L* lightness value; key to Chromaticity a*: CIELAB a* chromaticity value; key to Chromaticity b*: CIELAB b* chromaticity value; settings: for Chroma C*: C*=((a*)^2+(b*)^2)^1/2; for Chromaticity a* / Chromaticity b* / Lightness L*: ink with 6.0 parts compound
From the text: The compound (Compound Example No. 1) obtained in the above Example 1 was used to prepare a solution of the composition shown in the following Table 2, which was filtrated with a 0.45 μm membrane filter for removing insoluble matter to obtain each water-based ink composition for inkjet recording. And ion-exchanged water was used as water. In addition, the pH of the ink composition was adjusted to pH=8 to 10 with a 25% caustic soda aqueous solution, and water was further added so that the whole weight was 100 parts. Example 5 is the test using the compound obtained in Example 1.
(§1) Using an ink jet printer (manufactured by Canon Inc., trade name: Pixus 860i), inkjet recording was performed on glossy paper (manufactured by Canon Inc., trade name: Professional Photo Paper PR-101) having an ink image-receiving layer containing porous white inorganic substance and photo paper (glossy) manufactured by SEIKO-EPSON CORPORATION. In inkjet recording, an image pattern was made to obtain gradations of several stages in printing density and a print was made.
For the hue and vividness of recorded image, printed recording paper was measured using a Color Calibration Systems (trade name: GRETAG SPM50, manufactured by GretagMacbeth AG) to calculate values of L*, a* and b*, and chroma (C*) showing vividness was calculated from chromaticity (a*, b*) by C*=((a*)^2+(b*)^2)^1/2. The hue was evaluated by comparing with a sample of standard magenta in Japan Color manufactured by JPMA (Industry Association: Japan Printing Machinery Association).
In this connection, paper used for standard magenta in Japan Color was Japan Color Standard Paper.

[2] = Moisture fastness test of recorded image; set-up: key: ∘: Bleed is not observed.; Δ: Bleed is observed on small degree.; ×: Bleed is observed on large degree; settings: 168 hours, 30° C., 85% RH, bleed by visual observation
Procedure: as §1
Using a thermo-hygrostat (manufactured by OHKEN, Co., LTD), pieces of printed testing paper of glossy paper manufactured by Canon, Inc. and glossy paper manufactured by SEIKO-EPSON CORPORATION were left for 168 hours at a temperature of 30° C. and a humidity of 85% RH. Bleed property before and after the test was determined by visual observation and evaluated on 3 levels.
∘: Bleed is not observed.
Δ: Bleed is observed on small degree.
×: Bleed is observed on large degree.

[3] = Xenon light fastness test of recorded image; settings: any of glossy papers of CANON INC. and SEIKO-EPSON CORPORATION
Procedure: as §1
Using a xenon weatherometer Ci4000 (manufactured by ATLAS Electric Devices Co.), pieces of printed testing paper of glossy paper manufactured by Canon, Inc. and glossy paper manufactured by SEIKO-EPSON CORPORATION, on which an air layer was provided and a glass plate having a thickness of 2 mm was set up, were irradiated for 50 hours at an illuminance of 0.36 W/m^2 under the circumstances of a humidity of 60% RH and a temperature of 24° C. Color difference (ΔE) before and after the test was measured and the evaluation was performed on 3 levels.

[4] = Ozone gas fastness test of recorded image; settings: any of glossy papers of CANON INC. and SEIKO-EPSON CORPORATION
Procedure: Using an ink jet printer (manufactured by Canon Inc., trade name: Pixus 860i), inkjet recording was performed on glossy paper (manufactured by Canon Inc., trade name: Professional Photo Paper PR-101) having an ink image-receiving layer containing porous white inorganic substance and photo paper (glossy) manufactured by SEIKO-EPSON CORPORATION. In inkjet recording, an image pattern was made to obtain gradations of several stages in printing density and a print was made. Using an ozone weatherometer (manufactured by Suga Test Instruments Co., Ltd.), pieces of printed testing paper of glossy paper manufactured by Canon, Inc. and glossy paper manufactured by SEIKO-EPSON CORPORATION were left for 3 hours under the circumstances of an ozone concentration of 12 ppm, a humidity of 60% RH and a temperature of 24° C. Color difference (ΔE) before and after the test was measured and evaluation was performed on 3 levels. [formula] [formula] [formula]

[5] = Glossy paper manufactured by Canon Inc.
[6] = Glossy paper manufactured by SEIKO-EPSON CORPORATION
[7] = Glossy paper manufactured by CANON INC.

| Compound | Chroma C* [1, 5] | Chromaticity a* [1, 5] | Chromaticity b* [1, 5] | Lightness L* [1, 5] | Chroma C* [1, 6] | Chromaticity a* [1, 6] | Chromaticity b* [1, 6] | Lightness L* [1, 6] | Moisture fastness [2, 7] | Moisture fastness [2, 6] | Light fastness (in words) [3] | Ozone gas fastness (in words) [4] |
| --- | --- | --- | --- | --- | --- | --- | --- | --- | --- | --- | --- | --- |
| O=C(c1cccc(S(=O)(=O)O)c1)c1c2c3c(c(Nc4cc(Nc5nc(O)nc(Nc6ccccc6S(=O)(=O)O)n5)c(S(=O)(=O)O)cc4S(=O)(=O)O)cc(Oc4ccc(-c5ccc(S(=O)(=O)O)cc5)cc4S(=O)(=O)O)c3[nH]c1=O)C(=O)c1ccccc1-2 [Example 5 (No. 1)] | 88.2 | 88.2 | −2.9 | 57.8 | 82.3 | 82.3 | −1.7 | 56.1 | ∘ | ∘ | – | – |
| O=C(O)c1cc(Nc2nc(O)nc(Nc3cc(Nc4cc(Oc5ccc(-c6ccc(S(=O)(=O)O)cc6)cc5S(=O)(=O)O)c5[nH]c(=O)c(C(=O)c6cccc(S(=O)(=O)O)c6)c6c5c4C(=O)c4ccccc4-6)c(S(=O)(=O)O)cc3S(=O)(=O)O)n2)cc(C(=O)O)c1 [Example 7 (No. 11)] | 78.6 | 78.7 | 1.0 | 54.8 | 77.6 | 77.4 | −2.6 | 57.2 | ∘ | ∘ | – | – |
| Cn1c(=O)cc2c3c(c(Nc4cc(Nc5nc(O)nc(Nc6cc(S(=O)(=O)O)ccc6S(=O)(=O)O)n5)ccc4S(=O)(=O)O)ccc31)C(=O)c1ccccc1-2 [Comparative Example 1, reference compound] | 81.3 | 81.0 | −6.7 | 49.8 | 80.4 | 79.9 | −9.5 | 49.5 | ∘ | ∘ | has a problem in light fastness | a drawback in ozone gas fastness |
| O=C(O)c1ccccc1Nc1nc(O)nc(Nc2cc(Nc3cc(Oc4ccc(-c5ccc(S(=O)(=O)O)cc5)cc4S(=O)(=O)O)c4[nH]c(=O)c(C(=O)c5cccc(S(=O)(=O)O)c5)c5c4c3C(=O)c3ccccc3-5)c(S(=O)(=O)O)cc2S(=O)(=O)O)n1 [Example 6 (No. 8)] | 82.1 | 82.1 | 0.5 | 55.4 | 80.5 | 80.6 | −2.2 | 56.1 | ∘ | ∘ | – | – |
